Assay results from patent US20210292755A1, “NOVEL DOUBLE-STRANDED OLIGONUCLEOTIDES FOR THE TREATMENT OF CANCER” (SELEXEL, priority 2016, published 2021).
“Also recorded” adds a separate entry of the source.

How the values were obtained:
γH2AX [1] = test: Indirect immunofluorescence of γH2AX, bleomycin-treated transfected cells; type: cell-based, human; details: 72 hours after transfection
Protocol: (§1) FIG. 8: Immuno detection of γH2AX (first column) and 53BP1 (second column) in C4-2 cells treated for 6 h with bleomycin ([…]) or the vehicle added 72 h after transfection of cells by a control siRNA (Cont), siAR7 siRNA, or siARH2AX-1.
(§2) All the cells used in the following examples are human cells and express H2AX.
(§3) The cells are cultured in DMEM or RPMI supplemented with 10% fetal calf serum, or as recommended by the ATCC. When indicated, they are transfected with siRNA using lipofectamine (Life Technologies), following the supplier's protocol. The number of living cells after the indicated treatments was quantified by measuring their metabolic activity by the WST1 test according to the supplier's indications (Roche).
(§4) The effect of siRNA transfection and/or treatments by different chemotherapeutic agents on gene expression was measured: • by RT-qPCR quantification of mRNAs extracted by a conventional phenol-chloroform method (Trizol). The amount of RNA was normalized by measuring the cyclophilin A-encoding mRNA which is not regulated by AR (delta delta CT method). • by Western blotting on protein extracts. The antibodies used are: AR: Santacruz, N-20 sc-816; H2AX: Merck Millipore ref 07-627; Tubulin: Sigma T6199; Actin: Merck Millipore MAB 1501; γH2AX: Merck Millipore 05-636. […] The antibodies used are the following: γH2AX: Merck Millipore 05-636; 53BP1: Novus, NB 100-304.
(§5) In the experiment shown in FIG. 8, C4-2 cells were transfected with a control or siARH2AX-1 siRNA. 72 hours after transfection, the cells were then treated for 6 hours with […] of bleomycin or the corresponding vehicle.

[2] = siRNA distribution by RT-qPCR, continuous subcutaneous osmotic pump; type: in vivo; details: 2 mg/kg/day continuous subcutaneous, 3 days, 22RV1 tumor-bearing mice; 10 mM citrate buffer pH 6 with oxidized LDL (1:0.1 weight:weight) versus 154 mM NaCl
Source text: To quantify a siRNA in the biological samples, the inventors have developed a reverse transcription method followed by a quantitative PCR (RT-qPCR). For each siRNA, a specific stem-loop primer, having 8 overflowing nucleotides is synthesized, the 8 nucleotides being complementary to the 8 nucleotides of the 3′ end of the siRNA guide (antisense) strand. After a reverse transcription step, the product obtained is amplified by PCR using two primers, one hybridizing with the region corresponding to the loop of the reverse transcription primer. The 12 nucleotides at 3′ of the second primer having a DNA sequence corresponding to the 12 nucleotides of the 5′ end of the newly synthesized cDNA after reverse transcription of the siRNA guide strand. Detection of the amplification is carried out continuously by the degradation of a Taqman fluorescent probe or by incorporation of SybrGreen.
A range of double stranded siRNAs, from 10^3 to 10^9 copies in the RT reaction, diluted in water is made and treated together with the samples by RT-qPCR.
The biological samples in which siRNAs are quantified are either serum or total RNAs extracted from tissue fragments of known weight assumed to contain siRNA. […]
At the end of the experiment, the animals are sacrificed, the serum, the tumors and different tissues are dissected, the extracted RNAs and the siRNAs present in these RNAs are quantified. […]

H2AX = test: Western blot of H2AX after siRNA transfection; type: cell-based, human
Protocol: as §2, §3, §4

H2AX-encoding mRNA = test: RT-qPCR of H2AX-encoding mRNA after siRNA transfection; type: cell-based, human
Protocol: as §2, §3, §4

human AR mRNA = test: AR mRNA in tibia of 22RV1 tumor-bearing mice; type: in vivo; details: Nude mice with 22RV1 tumors, 0.2 mg/kg/day continuous subcutaneous, 3 weeks, in 154 mM NaCl
Protocol: Left panel: Expression level of human AR mRNA in nude mouse tibia carrying 22RV1 human prostate tumors in vehicle-treated mice (154 mM NaCl, black bar) or siARH2AX-1 diluted in this vehicle (gray bar) and administered subcutaneously continuously for 3 weeks (mean±SEM, n=7 values relative to the mean value of the NaCl group).
(§6) Tumors are obtained by subcutaneous injection of tumor cells into the flank of Nude mice. Only animals on which tumor uptake is found are included in the study and randomized to receive treatment or control treatment.
When indicated, the continuous administration of siRNA is carried out by implantation of an Alzet osmotic pump subcutaneously on the back of the mice, on the opposite side to the tumor when the mice wear one. […]
(§7) At the end of the experiment, the animals are sacrificed, the serum, the tumors and different tissues are dissected, the extracted RNAs and the siRNAs present in these RNAs are quantified.
(§8) In the experiment shown in FIG. 14, 22RV1 cells were implanted in Nude mice. Once the tumor was detected, Alzet pumps administering either 0.2 mg/kg/day siARH2AX-1 siRNA formulated in saline (154 mM NaCl), or the vehicle alone, were implanted for 3 weeks. At the end of treatment, the bones (tibia) were recovered to quantify siARH2AX-1, and the androgen receptor- and the HPRT-encoding mRNAs of human origin.

53BP1 = test: Indirect immunofluorescence of 53BP1, bleomycin-treated transfected cells; type: cell-based, human
Protocol: as §1, §2, §3, §4, §5

[3] = system: 22RV1 human prostate tumors; test: Bone metastases of 22RV1 tumors in Nude mice (human HPRT mRNA); type: in vivo; details: 0.2 mg/kg/day continuous subcutaneous, 3 weeks, in 154 mM NaCl
Protocol: Right panel: Metastatic load in bone as measured by the expression of human HPRT mRNA in both groups of animals. Each bar represents bone metastatic load in a mouse.
as §6
(§9) When indicated, the continuous administration of siRNA is carried out by implantation of an Alzet osmotic pump subcutaneously on the back of the mice, on the opposite side to the tumor when the mice wear one. The concentration of siRNA in the pump is adjusted to deliver the indicated amount in mg/kg/day taking into account the pump flow rate indicated by the manufacturer.
as §7, §8

[4] = system: 22RV1 human prostatic tumor; test: Subcutaneous tumor volume in mice; type: in vivo; details: 2 mg/kg/day
Protocol: as §6, §9
The subcutaneous tumors volume is estimated by measuring with a calliper the largest (D), the smallest (d) diameter of the tumors and their height (h). The volume is calculated by the formula V=D×d×h×Pi/6.

MDA MB-453 cells = test: WST1 cell viability test; type: cell-based, human; details: 72 hr after transfection
Protocol: as §2, §3

WM266-4 cells = test: WST1 cell viability test; type: cell-based, human
Protocol: as §2, §3

MDA MB231 cells = test: WST1 cell viability test; type: cell-based, human
Protocol: as §2, §3

LNCaP cells = test: WST1 cell viability test; type: cell-based, human
Protocol: as §2, §3

C4-2 cells = test: WST1 cell viability test; type: cell-based, human
Protocol: as §2, §3

U87 cells = test: WST1 cell viability test; type: cell-based, human; details: 72 hr after transfection
Protocol: as §2, §3

22RV1 cells = test: WST1 cell viability test; type: cell-based, human; details: 72 hr after transfection
Protocol: as §2, §3

AR-encoding mRNA = test: RT-qPCR of AR-encoding mRNA after siRNA transfection; type: cell-based, human; details: for AR mRNA expression: both lines
Protocol: as §2, §3, §4

AR = test: Western blot of AR after siRNA transfection; type: cell-based, human; details: C4-2 cells, 72 h after transfection
Protocol: as §2, §3, §4

PSA-encoding mRNA = test: RT-qPCR of PSA-encoding mRNA after siRNA transfection; type: cell-based, human; details: LNCaP or C4-2 cells, both lines, 72 hours after transfection
Protocol: as §2, §3, §4
In the experiment shown in FIG. 4, the LNCaP or C4-2 tumor cells were transfected with the following siRNAs: Cont, siAR7 or siARH2AX-1.

γH2AX [5] = test: Western blot of γH2AX after siRNA transfection; type: cell-based, human; details: PC3 cells, 72 hours after transfection
Protocol: as §2, §3, §4

[6] = C4-2 cells, 48 hours after transfection, relative to control siRNA
[7] = 40 μl of etoposide added 24 hours after transfection, WST1 48 h later

Substance: siARH2AX-1: bispecific AR-H2AX siRNA, SEQ ID NO: 1 GACUCAGCUGCCCCAUCCA[dT][dT] and SEQ ID NO: 2 UGGAUGGGGCAGCUGAGUC[dT][dT] (chain 1 GACUCAGCUGCCCCAUCCANN; chain 2 UGGAUGGGGCAGCUGAGUCNN; 3' dTdT overhangs, chemistry not fully specified)
- expression of H2AX (immunofluorescence) (γH2AX [1]; C4-2 cells, without bleomycin, compared to control condition): very small compared to the control condition
- γH2AX labeling after bleomycin (γH2AX [1]; siRNA-transfected C4-2 cells, bleomycin 6 hours): no increase H2AX
- concentration of siARH2AX-1 in serum, different organs and tumors [2]: increases the concentration
- H2AX protein expression (H2AX; C4-2 cells, 72 h after transfection): inhibits the expression of both AR and H2AX proteins
- H2AX protein expression (H2AX; PC3 cells, 72 hours after transfection): is inhibited
- H2AX expression (mRNA) (H2AX-encoding mRNA; [6]): much more effective than siAR2 siRNA in inhibiting H2AX expression
- inhibition of H2AX mRNA expression (H2AX-encoding mRNA; LNCaP or C4-2 cells, both lines, 72 hours after transfection): more than 90%
- H2AX mRNA expression (H2AX-encoding mRNA; LNCaP or MDA MB-453 cells, both lines, 72 h after transfection): inhibits the expression of the two AR- and H2AX-encoding mRNAs
- expression of the androgen receptor in the bones (tibia) (human AR mRNA): inhibit the expression of the androgen receptor
- expression of 53BP1 (53BP1; C4-2 cells, 72 hours after transfection, without bleomycin, compared to control condition): comparable
- DNA repair (53BP1; conclusion from γH2AX/53BP1 experiment in C4-2 cells): inhibits DNA repair
- recruitment of 53BP1 to DNA lesions after bleomycin (53BP1; siRNA-transfected C4-2 cells, 72 hours after transfection, bleomycin 6 hours): no increase H2AX or recruitment of 53BP1
- number of mice spontaneously developing bone metastases [3]: decrease in the number of mice spontaneously developing bone metastases
- size of bone metastases (human HPRT mRNA level in bone) [3]: decrease in the size of these tumors
- tumor development, combination with etoposide ([4]; siARH2AX-1 2 mg/kg/day continuous subcutaneous plus etoposide intraperitoneal): potentiates the effect of these two treatments taken separately; also recorded: amplifies tumor growth inhibition
- tumor development ([4]; siARH2AX-1 2 mg/kg/day continuous subcutaneous, 22 days, 10 mM citrate buffer pH 6 with 10 mM MgCl2): as effective as the high dose of etoposide; also recorded: effectively inhibits tumor development
- cell viability / proliferation (MDA MB-453 cells): inhibits the proliferation of all cell lines
- cell viability, siRNA combined with etoposide (WM266-4 cells; [7]): potentiate when combined
- cell viability / proliferation (WM266-4 cells; 72 hr after transfection): inhibits the proliferation of all cell lines
- cell viability, siRNA combined with etoposide (MDA MB231 cells; [7]): potentiate when combined
- cell viability / proliferation (MDA MB231 cells; 72 hr after transfection): inhibits the proliferation of all cell lines
- cell viability (MDA MB231 cells; 90 hours after transfection): significantly reduced
- cell viability / proliferation (LNCaP cells; 72 hr after transfection): inhibits the proliferation of all cell lines
- cell survival, siRNA combined with bleomycin, versus addition of the separate effects (LNCaP cells; bleomycin (10 μM)): approximately twice as inhibitory
- cell viability / proliferation (C4-2 cells; 72 hr after transfection): inhibits the proliferation of all cell lines
- cell viability (C4-2 cells; 90 hours after transfection): significantly reduced
- cell viability, siRNA combined with bleomycin (C4-2 cells; bleomycin (10 μM) added 48 hours after transfection, read 48 hours later, versus chemotherapeutic agent alone): potentiate to inhibit cell viability
- cell viability, siRNA combined with etoposide (C4-2 cells; etoposide (10 μM) added 48 hours after transfection, read 48 hours later, versus chemotherapeutic agent alone): potentiate to inhibit cell viability
- cell viability / proliferation (U87 cells): inhibits the proliferation of all cell lines
- cell viability / proliferation (22RV1 cells): inhibits the proliferation of all cell lines
- AR expression (mRNA) (AR-encoding mRNA; [6]): inhibit AR expression in a similar manner
- AR mRNA expression (AR-encoding mRNA; LNCaP or C4-2 cells, 72 hours after transfection): inhibit the expression of AR and PSA
- AR mRNA expression (AR-encoding mRNA; LNCaP or MDA MB-453 cells, 72 h after transfection): inhibits the expression of the two AR- and H2AX-encoding mRNAs
- AR protein expression (AR): inhibits the expression of both AR and H2AX proteins
- PSA mRNA expression (PSA-encoding mRNA): inhibit the expression of AR and PSA
- γH2AX phosphorylated form (γH2AX [5]): inhibition of its γH2AX phosphorylated form
